In data set [1] the test system is Nc1ncnc2c1ncn2[C@@H]1O[C@H](COP(=O)(O)O)[C@@H](O)[C@H]1O. Kind of data set: purified protein, by the assay type. The settings on record: pH 7.5; 37.0 °C.
In a further data set the test system is AdsA. It is filed as biochemical, S. aureus.
Another data set has as its system S. aureus. Particulars: individual subunit vaccine antigens; none afforded complete protection; cited from earlier work.
For data set [2], the system named is 5′-nucleotidases from snake venom. Particulars: Uchino et al., 1986; cited from earlier work.
In data set [3] the target is T1, 5′-nucleotidases from rat liver membrane (Rattus norvegicus, UniProt P21588).
T1 sequence (P21588 29-551): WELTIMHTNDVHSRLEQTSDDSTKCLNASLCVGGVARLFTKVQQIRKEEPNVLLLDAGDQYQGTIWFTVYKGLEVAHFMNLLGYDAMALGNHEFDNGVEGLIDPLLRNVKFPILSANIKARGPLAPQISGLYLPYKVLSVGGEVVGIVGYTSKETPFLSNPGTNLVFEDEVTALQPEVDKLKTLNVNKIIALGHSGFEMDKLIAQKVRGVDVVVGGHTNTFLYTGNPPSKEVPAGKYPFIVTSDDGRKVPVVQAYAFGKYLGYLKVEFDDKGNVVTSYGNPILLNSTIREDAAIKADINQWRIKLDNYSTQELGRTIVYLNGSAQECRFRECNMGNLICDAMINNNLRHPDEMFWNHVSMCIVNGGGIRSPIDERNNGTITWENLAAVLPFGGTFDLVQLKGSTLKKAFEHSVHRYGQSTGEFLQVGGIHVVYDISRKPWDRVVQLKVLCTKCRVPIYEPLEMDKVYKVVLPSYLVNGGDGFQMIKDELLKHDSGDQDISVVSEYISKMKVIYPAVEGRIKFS
Particulars: Uchino et al., 1986; cited from earlier work.

Data set [4] deals with secreted 5′-nucleotidases from trophozoites of Trichomonas gallinae. The settings on record: Borges et al., 2007; cited from earlier work.
For data set [5], the target named is T2, 5′-ecto nucleotidase (human homologue of bacterial AdsA) (Homo sapiens, UniProt P21589).
T2 sequence (P21589 27-549): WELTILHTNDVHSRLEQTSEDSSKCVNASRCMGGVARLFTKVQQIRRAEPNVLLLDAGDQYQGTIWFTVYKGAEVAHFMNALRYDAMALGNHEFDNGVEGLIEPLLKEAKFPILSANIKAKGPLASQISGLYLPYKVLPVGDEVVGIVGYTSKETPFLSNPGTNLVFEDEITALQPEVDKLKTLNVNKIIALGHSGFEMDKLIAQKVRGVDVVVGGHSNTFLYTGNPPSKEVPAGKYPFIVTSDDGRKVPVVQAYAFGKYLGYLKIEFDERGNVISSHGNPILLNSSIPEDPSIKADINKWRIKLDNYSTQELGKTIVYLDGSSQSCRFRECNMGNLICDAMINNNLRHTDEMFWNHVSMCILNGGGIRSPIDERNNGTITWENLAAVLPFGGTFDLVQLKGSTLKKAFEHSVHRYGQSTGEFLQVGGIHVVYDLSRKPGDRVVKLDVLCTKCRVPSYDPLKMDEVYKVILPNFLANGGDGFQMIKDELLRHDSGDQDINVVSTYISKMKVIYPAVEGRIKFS
Particulars: cited from earlier work.

Data set [6] has as its system adsA mutant staphylococci. Kind of data set: Survival of adsA staphylococci in rat blood with added adenosine (FIG. 17F). It is filed as cell-based, S. aureus. Particulars: addition of 1-100 μM adenosine.
The subject of another data set is S. aureus Newman. In words: Eap, Emp vaccination, murine renal abscess model (FIG. 5). The settings on record: for histological lesions: kidneys of immunized mice, PBS mock 4/5, FIG. 5E.

Some results are limits rather than exact numbers.

Consider “Staphylococcus aureus adenosine synthase A (AdsA, SasH), purified soluble recombinant form AdsA1-400 (from GST-AdsA expressed in Escherichia coli), SEQ ID NO:36 (Staphylococcus aureus subsp. aureus NCTC 8325)”, for which the Km (as a rule, the concentration of substrate that gives half-maximal velocity) in data set [1] stood at 44 nM.

For `O=S(=O)([O-])[O-].[Cu+2]` [CuSO4], in the data set with AdsA, the “inhibition of adenosine synthase activity” value is on record as “completely inhibited”.

Turning to “IsdB: purified S. aureus sortase A substrate surface protein used as subunit vaccine antigen”, in the data set with S. aureus, the “reduction in bacterial load” value was “significant reduction in bacterial load”.

For `[Cl-].[Cl-].[Zn+2]` [ZnCl2], the “inhibition of adenosine synthase activity” value in the data set on AdsA is reported as “completely inhibited”.

Take melanocidins A and B: the “inhibitory activity against 5′-nucleotidases” value in data set [2] and in [3] was “potent inhibitory activity” throughout.

As for “SdrE: purified S. aureus sortase A substrate surface protein used as subunit vaccine antigen”, the “reduction in bacterial load” value with S. aureus was “significant reduction in bacterial load”.

With `Nc1ncnc2c1ncn2[C@@H]1O[C@H](COP(=O)(O)CP(=O)(O)O)[C@@H](O)[C@H]1O` [AOPCP, α,β-methylene adenosine 5′-diphosphate], the “inhibition of secreted 5′-nucleotidases” value in data set [4] is “does not inhibit”. Moreover, the “inhibition of 5′-ecto nucleotidase” value in [5] is “inhibitor”.

Take `Nc1ncnc2c1ncn2[C@@H]1O[C@H](CO)[C@@H](O)[C@H]1O` [adenosine]: the “survival of adsA mutant staphylococci in blood” value in data set [6] is “dose-dependent increase in the survival”.

On to “SdrD: purified S. aureus sortase A substrate surface protein used as subunit vaccine antigen”, for which, in the data set with S. aureus, the “reduction in bacterial load” value is given as “significant reduction in bacterial load”.

Consider nucleoticidin, for which the “inhibitory activity against 5′-nucleotidases” value in data set [2] and in data set [3] was “potent inhibitory activity” each time.

B1: Eap: recombinant His-tagged staphylococcal envelope associated protein Eap (SEQ ID NO:4) purified from E. coli, vaccine antigen (protein, listed as Staphylococcus aureus)
chain: MKFKSLITTTLALGVLASTGANFNNNEASAAAKPLDKSSSSLHHGYSKVHVPYAITVNGTSQNILSSLTFNKNQNISYKDLEDRVKSVLKSDRGISDIDLRLSKQAKYTVYFKNGTKKVIDLKAGIYTADLINTSEIKAININVDTKKQVEDKKKDKANYQVPYTITVNGTSQNILSNLTFNKNQNISYKDLEDKVKSVLESNRGITDVDLRLSKQAKYTVNFKNGTKKVIDLKSGIYTANLINSSDIKSININVDTKKHIENKAKRNYQVPYSINLNGTSTNILSNLSFSNKPWTNYKNLTSQIKSVLKHDRGISEQDLKYAKKAYYTVYFKNGGKRILQLNSKNYTANLVHAKDVKRIEITVKTGTKAKADRYVPYTIAVNGTSTPILSDLKFTGDPRVGYKDISKKVKSVLKHDRGIGERELKYAKKATYTVHFKNGTKKVININSNISQLNLLYVQDIKKIDIDVKTGTKAKADSYVPYTIAVNGTSTPILSKLKISNKQLISYKYLNDKVKSVLKSERGISDLDLKFAKQAKYTVYFKNGKKQVVNLKSDIFTPNLFSAKDIKKIDIDVKQYTKSKKNK
modifications: His-tag
As for B1, the histological lesions in the data set on S. aureus Newman is 1/5.

B2: Emp: recombinant His-tagged staphylococcal envelope associated protein Emp (SEQ ID NO:2) purified from E. coli, vaccine antigen (protein, listed as Staphylococcus aureus)
chain: MKKKLLVLTMSTLFATQIMNSNHAKASVTESVDKKFVVPESGINKIIPAYDEFKNSPKVNVSNLTDNKNFVASEDKLNKIADSSAASKIVDKNFVVPESKLGNIVPEYKEINNRVNVATNNPASQQVDKHFVAKGPEVNRFITQNKVNHHFITTQTHYKKVITSYKSTHVHKHVNHAKDSINKHFIVKPSESPRYTHPSQSLIIKHHFAVPGYHAHKFVTPGHASIKINHFCVVPQINSFKVIPPYGHNSHRMHVPSFQNNTTATHQNAKVNKAYDYKYFYSYKVVKGVKKYFSFSQSNGYKIGKPSLNIKNVNYQYAVPSYSPTHYVPEFKGSLPAPRV
modifications: His-tag
As for B2, in the data set with S. aureus Newman (ELISA IgG titers from vaccinated mice, FIG. 5D), the “titers of reactive IgG” value was > 64,000. Also, in the data set with S. aureus Newman, the histological lesions is reported as 1/5.

B3: IsdA: purified S. aureus sortase A substrate surface protein used as subunit vaccine antigen (protein, listed as Staphylococcus sp.)
chain: MTKHYLNSKYQSEQRSSAMKKITMGTASIILGSLVYIGADSQQVNAATEATNATNNQSTQVSQATSQPINFQVQKDGSSEKSHMDDYMQHPGKVIKQNNKYYFQTVLNNASFWKEYKFYNANNQELATTVVNDNKKADTRTINVAVEPGYKSLTTKVHIVVPQINYNHRYTTHLEFEKAIPTLADAAKPNNVKPVQPKPAQPKTPTEQTKPVQPKVEKVKPTVTTTSKVEDNHSTKVVSTDTTKDQTKTQTAHTVKTAQTAQEQNKVQTPVKDVATAKSESNNQAVSDNKSQQTNKVTKHNETPKQASKAKELPKTGLTSVDNFISTVAFATLALLGSLSLLLFKRKESK
As to B3, in the data set with S. aureus, the “reduction in bacterial load” value is on record as “significant reduction in bacterial load”.

These data come from patent US20110262477A1 (priority 2008, published 2011).
